According to US11945847B2, “Optogenetic induction of neurodegenerative disease pathologies” (UNIVERSITY OF PITTSBURGH—OF THE COMMONWEALTH SYSTEM OF …, priority 2017, dated 2024):

Tests used:
[1] = tested on: HEK cells; assay: Light-induced oligomerization of optogenetic TDP-43 fragments, live confocal microscopy; type: cell-based; conditions: for oligomerization after a brief pulse of blue light: 8 sec, live confocal microscopy; for oligomerization after a brief pulse of blue light / persistence of oligomers: 10% laser power, 488 nm; for persistence of oligomers: after brief pulse 8 sec
From the text: (§1) FIGS. 4A-4E show light-induced aggregation of low-complexity domain proteins. Optogenetic TDP-43 fragments containing the low-complexity domain (LCD) undergo progressive aggregation with light stimulation. […] (FIGS. 4C-4D) Optogenetic LCD fragments also continue to aggregate following brief light pulses, growing in size over time. (FIG. 4E) Persistent blue light stimulation of the TDP-43 LCD forms intracellular aggregates in the cells.
Beyond protein aggregation, this system creates light-induced pathologies that mimic key pathological features found in patients making it unique compared to overexpression systems. The TDP-43 protein, which contains an LCD, was combined with the CRY2OLIG photoreceptor domain which clusters when exposed to blue light and becomes insoluble and aggregated with persistent light treatment. Fusion proteins of the full length and partial LCD sequence were generated to recapitulate human neurodegenerative disease pathology, including the cytoplasmic mislocalization of nuclear proteins that occurs in patients with ALS and FTD. This system could induce neurodegenerative disease protein aggregates in live HEK cells by exposing them to various blue light stimuli paradigms (FIGS. 4-5). In addition, biochemical hallmarks of ALS, FTD, and AD (FIG. 7) were produced showing that the cell is responding to the light-induced aggregates as observed in patient CNS despite the addition of these tags. […] Employing this DNA arrangement and light stimulation system as an example, cytoplasmic TDP-43 aggregates were obtained that are also ubiquitinylated, cleaved, and hyperphosphorylated as observed in ALS, FTD, and AD patients. TDP-43 pathology is also found in AD as well as Chronic Traumatic Encephalopathy (CTE) thus highlighting the potential disease relevance of this work. In addition, a protein arrangement and light stimulation paradigm was developed to induce the aggregation of α-synuclein (FIG. 6), which is found in the CNS of patients diagnosed with Parkinson's Disease and Lewy Body Dementia. Methods were also developed to induce intracellular aggregation of Tau protein using both the Cry-PHR and LOV photoreceptors (FIG. 7) and persistent blue light stimulation. These tau tangles are pathological hallmarks of AD, FTD and CTE in HEK cells. […] Finally, it was shown that this method can be utilized to seed aggregations, as aggregates of TDP-43 formed using this method recruit endogenous TDP-43 to seed the pathogenic neuropathology (FIGS. 5F, 5G).

[2] = tested on: live cells; assay: Blue light-induced clustering/aggregation of CRY2OLIG constructs visualized in live cells; type: cell-based; conditions: specific blue light stimulation paradigms
From the text: FIGS. 2A-2B describe methods to generate neuropathological aggregate proteins containing an LCD/IDR/Prion-like domain with light using TDP-43 and CRY2OLIG as an example. Various protein arrangements and blue light exposure paradigms were developed to induce protein aggregation of proteins and protein fragments containing LCD/IDR/prion-like domains, promote the mislocalization of nuclear proteins and recapitulate the neuropathology of neurodegenerative diseases. TDP-43 is a predominantly nuclear protein that contains an IDR/IDD/prion-like domain, and is mislocalized and aggregated in ALS, FTD, and some AD patients, as an example. DNA sequences were engineered to generate amino acid sequences that encode for a the CRY2OLIG protein that clusters when exposed to blue light generated a fusion protein either the entire TDP-43 protein (cry2-TDP43-mCh) or just the low complexity domain (LCD/IDD/prion-like domain), which makes TDP-43 aggregation prone (Cry2-274-mCh). As a control, CRY2OLIG alone was used. All constructs were fused to a fluorescent protein called mCherry (mCh) to visualize the proteins in live cells.

[3] = tested on: HEK293 cells; assay: Fluorescence recovery after photobleaching (FRAP) of light-induced TDP-43 inclusions; type: cell-based; conditions: persistent / chronic blue light-induced inclusions
From the text: as §1
FIGS. 5A-5K show chronic blue light stimulation induces optoTDP43 mislocalization and aggregation that recapitulates pathological hallmarks seen in patient CNS tissue. HEK293 cells expressing optoTDP43-mCh were exposed to 488 nm LED stimulation or darkness for up to 36 hours. […] (FIG. 5E) Fluorescence recovery after photobleaching (FRAP) imaging was performed to assess dynamicity of optoTDP43 structures. […] (FIG. 5F) Detergent-solubility of optoTDP43 structures was assessed by subcellular fractionation to confirm aggregated state of light-induced optoTDP43 granules. […] Human ReN neurons expressing TDP43-mCh or optoTDP43 were exposed to chronic blue light stimulation and viability was simultaneously monitored by longitudinal imaging.

[4] = tested on: HEK293 cells; assay: Chronic blue light stimulation: optoTDP43 mislocalization and aggregation; type: cell-based
Experimental: (§2) FIGS. 5A-5K show chronic blue light stimulation induces optoTDP43 mislocalization and aggregation that recapitulates pathological hallmarks seen in patient CNS tissue. HEK293 cells expressing optoTDP43-mCh were exposed to 488 nm LED stimulation or darkness for up to 36 hours. […] (FIG. 5E) Fluorescence recovery after photobleaching (FRAP) imaging was performed to assess dynamicity of optoTDP43 structures. […] (FIG. 5F) Detergent-solubility of optoTDP43 structures was assessed by subcellular fractionation to confirm aggregated state of light-induced optoTDP43 granules. […] In addition to increased insolubility of exogenous, full-length optoTDP43 (top band), chronic blue light exposure also results in recruitment of aberrant optoTDP43 cleavage products (middle bands), as well as endogenous full-length TDP-43 and disease-relevant cleavage products (bottom bands), to the detergent-insoluble, urea-soluble fraction of cell lysates as is observed in patient tissue. (FIG. 5G) To confirm direct recruitment of non-optogenetic TDP-43 species to exogenous light-induced optoTDP43 inclusions, EGFP-tagged TDP-43 was co-expressed with optoTDP43 or the Cry2 photoreceptor-only control. […] Human ReN neurons expressing TDP43-mCh or optoTDP43 were exposed to chronic blue light stimulation and viability was simultaneously monitored by longitudinal imaging.

[5] = tested on: HEK293 cells; assay: Detergent-solubility by subcellular fractionation; type: cell-based; conditions: with and without light treatment; chronic blue light stimulation
Experimental: as §2

[6] = molecular target: T1, EGFP-tagged TDP-43 (Homo sapiens, UniProt Q13148); assay: Recruitment of co-expressed EGFP-tagged TDP-43 to light-induced inclusions (co-localization); type: cell-based; conditions: chronic blue light stimulation
T1 construct: expressed in transfected cells
T1 sequence (Q13148 whole entry): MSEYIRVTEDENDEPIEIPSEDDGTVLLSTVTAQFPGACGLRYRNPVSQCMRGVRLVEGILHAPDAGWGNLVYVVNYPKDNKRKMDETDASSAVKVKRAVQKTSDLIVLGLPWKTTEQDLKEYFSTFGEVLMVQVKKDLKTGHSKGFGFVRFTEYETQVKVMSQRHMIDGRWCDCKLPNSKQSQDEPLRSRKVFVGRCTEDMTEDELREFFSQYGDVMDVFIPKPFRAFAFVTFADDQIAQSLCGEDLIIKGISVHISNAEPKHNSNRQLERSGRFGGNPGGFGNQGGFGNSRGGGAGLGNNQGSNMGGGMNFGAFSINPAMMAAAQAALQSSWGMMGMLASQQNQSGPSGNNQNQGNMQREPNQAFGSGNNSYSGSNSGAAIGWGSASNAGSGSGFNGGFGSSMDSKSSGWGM
Experimental: as §2

[7] = tested on: HEK293 cells; assay: Immunofluorescence analysis of pathological hallmarks of light-induced optoTDP43 aggregates; type: cell-based
Experimental: FIGS. 5A-5K show chronic blue light stimulation induces optoTDP43 mislocalization and aggregation that recapitulates pathological hallmarks seen in patient CNS tissue. HEK293 cells expressing optoTDP43-mCh were exposed to 488 nm LED stimulation or darkness for up to 36 hours. […] (FIG. 5E) Fluorescence recovery after photobleaching (FRAP) imaging was performed to assess dynamicity of optoTDP43 structures. […] (FIG. 5F) Detergent-solubility of optoTDP43 structures was assessed by subcellular fractionation to confirm aggregated state of light-induced optoTDP43 granules. […] In addition to increased insolubility of exogenous, full-length optoTDP43 (top band), chronic blue light exposure also results in recruitment of aberrant optoTDP43 cleavage products (middle bands), as well as endogenous full-length TDP-43 and disease-relevant cleavage products (bottom bands), to the detergent-insoluble, urea-soluble fraction of cell lysates as is observed in patient tissue. (FIG. 5G) To confirm direct recruitment of non-optogenetic TDP-43 species to exogenous light-induced optoTDP43 inclusions, EGFP-tagged TDP-43 was co-expressed with optoTDP43 or the Cry2 photoreceptor-only control. […] (FIG. 5H-5J) Immunofluorescence analysis was performed on light-induced optoTDP43 aggregates to confirm pathological hallmarks seen in patient tissue. optoTDP43 inclusions appear to be (FIG. 5H) ubiquitinated, (FIG. 5I) hyperphosphorylated, and (FIG. 5J) p62-positive, all of which have been observed with TDP-43 inclusions in patient CNS. (FIG. 5K) Automated high-throughput confocal microscopy was performed to assess the neurotoxicity of light-induced optoTDP43 inclusions. Human ReN neurons expressing TDP43-mCh or optoTDP43 were exposed to chronic blue light stimulation and viability was simultaneously monitored by longitudinal imaging.

[8] = tested on: Human ReN neurons; assay: Neurotoxicity by automated high-throughput confocal longitudinal imaging; type: cell-based; conditions: chronic blue light stimulation
Experimental: as §2

[9] = tested on: HEK cells; assay: Acute blue light stimulation: pathological aggregate formation and toxicity; type: cell-based
From the text: FIG. 10B is a schematic of a screening pipeline to use the induction of neurodegenerative disease pathology to identify therapeutic compounds that rescue toxicity and prevent or remove the formation of the induced neurodegenerative disease pathology.

[10] = Aggregation potential of CRY2 or VVD fusion proteins by protein arrangement; type: cell-based; conditions: protein arrangement and light stimulation paradigm
From the text: FIGS. 9A-9B show the aggregation potential of CRY2 or VVD fusion proteins based on the protein arrangement and light stimulation paradigm combination. Studies indicate that the ability of Cry2 or VVD photoreceptor to stimulate clustering and activation are dependent on the protein arrangement as well as the light stimulation paradigm.

[11] = molecular target: the molecule itself; assay: self-association in live cells on blue light, mCherry fluorescence
[12] = cited from earlier work

With “optoRRM2+LCD: Optogenetic C-terminal fragment of TDP-43 containing RRM2 and the low-complexity domain” the “oligomerization after a brief pulse of blue light” value [1] was “rapidly oligomerize” and the persistence of oligomers [1] was “persist much longer than the Cry2 photoreceptor alone”.

With “optoTDP43: CRY2OLIG fused to the entire TDP-43 protein and mCherry” the “clustering / aggregation with blue light stimulation (reversibility)” value (“clustering / aggregation” for short) [2] was “forms irreversible aggregates”, the “fluorescence recovery after photobleaching (FRAP)” value [3] was “Lack of fluorescence recovery” and the localization ([4]; 488 nm LED stimulation up to 36 hours, confirmed by nuclear/cytoplasmic fractionation) was “gradual cytoplasmic mislocalization”. For the same molecule, the aggregation ([4]; simultaneous chronic blue light exposure and high-throughput automated confocal microscopy) was “increases in propensity with increasing light exposure”, the detergent-solubility [5] was “drastic shift to the insoluble fraction” and the “co-localization with EGFP-TDP43” value [6] was “strong co-localization”. For the same molecule, the “p62 staining of inclusions” value [7] was “p62-positive”, the phosphorylation of inclusions [7] was “hyperphosphorylated” and the ubiquitination of inclusions [7] was “ubiquitinated”. The “neuron survival / viability” value [8] was “significantly decreased viability over time”.

For “optoLCD: CRY2OLIG fused to just the low complexity domain of TDP-43 and mCherry”, the “clustering / aggregation” value [2] was “forms irreversible aggregates”, the “oligomerization after a brief pulse of blue light” value [1] was “rapidly oligomerize” and the persistence of oligomers [1] was “persist much longer than the Cry2 photoreceptor alone”. The “fluorescence recovery after photobleaching (FRAP)” value [3] was “do not recover from FRAP”, the “time to formation of pathological aggregates” value ([9]; acute stimulation) was ≤ 1 hour and the toxicity of aggregates ([9]; aggregates grow in size over time) was “become toxic over time”.

In the case of “TDP-43-CRY2OLIG-mCh: full length TDP-43, Cry2olig, mCherry reporter arrangement”, the ability to aggregate [10] is reported as “mislocalizes but does not exhibit the ability to aggregate”.

B1: CRY2OLIG-mCh (other)
chain: MKMDKKTIVWFRRDLRIEDNPALAAAAHEGSVFPVFIWCPEEEGQFYPGRASRWWMKQSLAHLSQSLKALGSDLTLIKTHNTISAILDCIRVTGATKVVFNHLYDPVSLVRDHTVKEKLVERGISVQSYNGDLLYEPWEIYCEKGKPFTSFNSYWKKCLDMSIESVMLPPPWRLMPITAAAEAIWACSIEELGLENEAEKPSNALLTRAWSPGWSNADKLLNEFIEKQLIDYAKNSKKVVGNSTSLLSPYLHFGEISVRHVFQCARMKQIIWARDKNSEGEESADLFLRGIGLREYSRYICFNFPFTHEQSLLSHLRFFPWDADVDKFKAWRQGRTGYPLVDAGMRELWATGWMHNRIRVIVSSFAVKFLLLPWKWGMKYFWDTLLDADLECDILGWQYISGSIPDGHELDRLDNPALQGAKYDPEGEYIRQWLPELARLPTEWIHHPWDAPLTVLKASGVELGTNYAKPIVDIDTARELLAKAISRTRGAQIMIGAA
notes: also called Cry2-mCh; Cry2 photoreceptor-only control; not shown: mCherry reporter and any linker
B1: binds [11].

B2: CRY2OLIG: Cryptochrome 2 PHR Domain with E490G substitution (protein)
chain: MKMDKKTIVWFRRDLRIEDNPALAAAAHEGSVFPVFIWCPEEEGQFYPGRASRWWMKQSLAHLSQSLKALGSDLTLIKTHNTISAILDCIRVTGATKVVFNHLYDPVSLVRDHTVKEKLVERGISVQSYNGDLLYEPWEIYCEKGKPFTSFNSYWKKCLDMSIESVMLPPPWRLMPITAAAEAIWACSIEELGLENEAEKPSNALLTRAWSPGWSNADKLLNEFIEKQLIDYAKNSKKVVGNSTSLLSPYLHFGEISVRHVFQCARMKQIIWARDKNSEGEESADLFLRGIGLREYSRYICFNFPFTHEQSLLSHLRFFPWDADVDKFKAWRQGRTGYPLVDAGMRELWATGWMHNRIRVIVSSFAVKFLLLPWKWGMKYFWDTLLDADLECDILGWQYISGSIPDGHELDRLDNPALQGAKYDPEGEYIRQWLPELARLPTEWIHHPWDAPLTVLKASGVELGTNYAKPIVDIDTARELLAKAISRTRGAQIMIGAA
For B2, the “efficiency of clustering upon blue light stimulation” value ([12]; E490G mutation versus endogenous sequence) is given as “slightly increased efficiency of clustering”.

B3: NcVVDY50W: NcVivid Y50W substitution (protein)
chain: HTLYAPGGYDIMGWLIQIMNRPNPQVELGPVDTSCALILCDLKQKDTPIVYASEAFLYMTGYSNAEVLGRNCRFLQSPDGMVKPKSTRKYVDSNTINTMRKAIDRNAEVQVEVVNFKKNGQRFVNFLTMIPVRDETGEYRYSMGFQCETE
In the case of B3, the “dissipation from the dimerized state” value ([12]; Y50W change) is given as “slower ability to dissipate from the dimerized state”.

B4: Cry2-mCh: As a control, CRY2OLIG alone fused to mCherry (protein)
chain: MKMDKKTIVWFRRDLRIEDNPALAAAAHEGSVFPVFIWCPEEEGQFYPGRASRWWMKQSLAHLSQSLKALGSDLTLIKTHNTISAILDCIRVTGATKVVFNHLYDPVSLVRDHTVKEKLVERGISVQSYNGDLLYEPWEIYCEKGKPFTSFNSYWKKCLDMSIESVMLPPPWRLMPITAAAEAIWACSIEELGLENEAEKPSNALLTRAWSPGWSNADKLLNEFIEKQLIDYAKNSKKVVGNSTSLLSPYLHFGEISVRHVFQCARMKQIIWARDKNSEGEESADLFLRGIGLREYSRYICFNFPFTHEQSLLSHLRFFPWDADVDKFKAWRQGRTGYPLVDAGMRELWATGWMHNRIRVIVSSFAVKFLLLPWKWGMKYFWDTLLDADLECDILGWQYISGSIPDGHELDRLDNPALQGAKYDPEGEYIRQWLPELARLPTEWIHHPWDAPLTVLKASGVELGTNYAKPIVDIDTARELLAKAISRTRGAQIMIGAA
modifications: left off: large carriers
notes: As a control, CRY2OLIG alone fused to mCherry
For B4, the “clustering / aggregation” value [2] was “reversibly clusters”, the disassembly ([1]; after brief pulse of blue light) was ~10 min and the “co-localization with EGFP-TDP43” value [6] was “no co-localization”.
